The subject of assay [1] is Dicer1f/f mouse RPE cells. The assay can be described thus: Cell viability of Dicer1f/f mouse RPE cells treated with Ad-Cre. Format: cell-based. As for the experimental part: (§1) Adenoviral infection. Cells were plated at density of 15×10^3/cm^2 and after 16 h, at approximately 50% confluence, were infected with AdCre or AdNull (Vector Laboratories) with a multiplicity of infection of 1,000.

In a further assay the test system is human RPE cells. The method, then: Cell viability. Cell viability measurements were performed using the CellTiter 96 AQueous One Solution Cell Proliferation Assay (Promega) in according to the manufacturer's instructions.
Cell culture. All cell cultures were maintained at 37° C. and 5% CO2. Primary mouse RPE cells were isolated as previously described (Yang et al., 2009) and grown in Dulbecco Modified Eagle Medium (DMEM) supplemented with 20% FBS and standard antibiotics concentrations. Primary human RPE cells were isolated as previously described (Yang et al., 2008) and maintained in DMEM supplemented with 10% FBS and antibiotics. HeLa cells were maintained in DMEM supplemented with 20% FBS and standard antibiotics concentrations. THP-1 cells were cultured in RPMI 1640 medium supplemented with 10% FBS and antibiotics.
Transient transfection. Human or mouse RPE cells were transfected with pUC19, pAlu, pCDNA3.1/Dicer-FLAG, pCDNA3.1, Alu RNA, NLRP3 siRNA sense, PYCARD siRNA sense, MyD88 siRNA sense, DICER1 antisense oligonucleotide (AS), control (for DICER1) AS, Alu AS, and control (for Alu) AS using Lipofectamine 2000 (Invitrogen) according to the manufacturer's instructions.
Cell viability. MTS assays were performed using the CellTiter 96 AQueous One Solution Cell Proliferation Assay (Promega) according to the manufacturer's instructions. For examining the cytoprotective effect of glycine in Alu RNA induced cell death, human RPE cells were transfected with pNull/pAlu. At 6 h post-transfection the cells were incubated with complete media containing glycine (5 mM) or vehicle, and cell viability was assessed after 24 h. Similarly, human RPE cells primed with LPS (5 μg/ml for 6 h) were treated with ATP (25 μM) in the presence of glycine containing media (5 mM). 30 min post ATP cell viability was assessed as described above.

The subject of assay [2] is Dicer1f/f mouse RPE cells. The assay can be described thus: miRNA quantification in Dicer1f/f mouse RPE cells treated with Ad-Cre. The following applies: versus control peptide. Format: cell-based.
Source text: miRNA quantification. Total RNA containing miRNAs was polyadenylated and reverse transcribed using universal primer using the All-In-One miRNA q-RT-PCR Detection Kit (GeneCopoeia) according to the manufacturer's specifications using a universal reverse primer in combination with forward primers for: mouse miR-184; mouse miR-221/222; mouse miR-320a; and mouse miR-484. miRNA levels were normalized to levels of U6 snRNA using the 2^−ΔΔct method. Detection was achieved by SYBR green qPCR with the following conditions: 95° C. for 10 min followed by 40 cycles of 95° C. for 10 s, 60° C. for 20 s and 72° C. for 20 s. Amplicon specificity was assessed by melt curve analysis and unique bands by agarose gel electrophoresis.
as §1

The subject of another assay is wild-type mice. The assay can be described thus: Alu RNA- or pAlu-induced RPE degeneration after subretinal injection (fundus photographs, ZO-1 flat mounts). Format: in vivo. The settings on record: subretinal Alu RNA, test agent intravitreous. As for the experimental part: Subretinal injection and imaging. Subretinal injections (1 μL) in mice were performed using a Pico-Injector (PLI-100, Harvard Apparatus). In vivo transfection of plasmids was achieved using 10% Neuroporter (Genlantis). Fundus imaging was performed on a TRC-50 IX camera (Topcon) linked to a digital imaging system (Sony). Immunolabeling of RPE flat mounts was performed using antibodies against human zonula occludens-1 (Invitrogen).
Fundus photography. Retinal photographs of dilated mouse eyes were taken with a TRC-50 IX camera (Topcon) linked to a digital imaging system (Sony).
Immunolabeling. Human eyes fixed in 2-4% paraformaldehyde were prepared as eyecups, cryoprotected in 30% sucrose, embedded in optimal cutting temperature compound (Tissue-Tek OCT; Sakura Finetek), and cryosectioned into 10 μm sections. Depigmentation was achieved using 0.25% potassium permanganate and 0.1% oxalic acid. Immunohistochemical staining was performed with the rabbit antibody against NLRP3 (1:100, Sigma Aldrich) or rabbit antibody against Caspase-1 (prediluted, AbCam). Isotype IgG was substituted for the primary antibody to assess the specificity of the staining. Bound antibody was detected with biotin-conjugated secondary antibodies, followed by incubation with ABC reagent and visualized by Vector Blue (Vector Laboratories). Levamisole (Vector Laboratories) was used to block endogenous alkaline phosphatase activity. Slides were washed in PBS, counterstained with neutral red (Fisher Scientific), rinsed with deionized water, air dried, and then mounted in Vectamount (Vector Laboratories). Fluorescent labeling of human tissue was performed with the rabbit antibody against PYCARD (1:50, Clone N-15, Santa Cruz Biotechnology). Immunolabeling was visualized by fluorescently conjugated anti-rabbit secondary antibody (Invitrogen). Tissue autofluorescence was quenched by incubating the sections in 0.3% Sudan black (Fisher Scientific). Sections were mounted in Vectashield with DAPI (Vector Laboratories). Mouse RPE/choroid flat mounts were fixed with 4% paraformaldehyde or 100% methanol, stained with rabbit antibodies against human zonula occludens-1 (1:100, Invitrogen) and visualized with Alexa594 (Invitrogen). All images were obtained using the Leica SP-5 or Zeiss Axio Observer Z1 microscopes.
Subretinal injection. Subretinal injections (1 μL) in mice were performed using a Pico-Injector (PLI-100, Harvard Apparatus). In vivo transfection of plasmids coding for two different Alu sequences (pAlu) or empty control vector (pNull) (Bennett et al., 2008; Kaneko et al., 2011; Shaikh et al., 1997) was achieved using 10% Neuroporter (Genlantis). AAV1-BEST1-Cre (Alexander and Hauswirth, 2008) or AAV1-BEST1-GFP were injected at […] pfu/mL and in vitro transcribed Alu RNA was injected at 0.3 mg/mL.
Drug treatments. siRNAs formulated in siRNA buffer (20 mM KCL, 0.2 mM MgCl2 in HEPES buffer at pH 7.5; Dharmacon) or phosphate buffered saline (PBS; Sigma-Aldrich); the TLR4 antagonist Ultra Pure Rhodobacter sphaeroides LPS (LPS-RS, InvivoGen), a peptide inhibitor of MyD88 homodimerization IMG-2005 (IMGENEX), control inhibitor (IMGENEX), recombinant IL-18 (Medical & Biological Laboratories), neutralizing rat antibodies against mouse IL-1β (IMGENEX), neutralizing rat antibodies against mouse IL-18 (Medical & Biological Laboratories), isotype control IgGs (R&D Systems or eBioscience as appropriate), Caspase-1 inhibitor Z-WEHD-FMK (R&D Systems), Caspase-3 inhibitor Z-DEVD-FMK (R&D Systems), Caspase control inhibitor Z-FA-FMK (R&D Systems), (2R,4R)-APDC (Enzo Life Sciences), Glipizide (Sigma-Aldrich), Glyburide (Sigma-Aldrich), and P2X7 receptor antagonist A438079 (Tocris Bioscience) were dissolved in phosphate buffered saline (PBS; Sigma-Aldrich) or dimethyl sulfoxide (DMSO; Sigma-Aldrich), and injected into the vitreous humor in a total volume of 1 μL with a 33-gauge Exmire microsyringe (Ito Corporation). […]

As for “MyD88 inhibitory peptide: peptide inhibitor of MyD88 homodimerization IMG-2005 (IMGENEX)”, in assay [1], the “cell death in Dicer1f/f mouse RPE cells treated with adenoviral vector coding for Cre recombinase” value is listed as “prevented cell death”. Moreover, the “cell death in human RPE cells treated with antisense oligonucleotides targeting DICER1” value in the assay with human RPE cells (DICER1 AS) was “prevented cell death”. Moreover, in the assay on human RPE cells (human RPE cells transfected with pAlu), the “pAlu-induced human RPE cell death (loss of cell viability)” value was “inhibited cell death”. In addition, the “miRNA abundance in Dicer1 depleted cells” value in assay [2] was “No significant difference”. For the same substance, in the assay with wild-type mice, the “Alu RNA-induced RPE degeneration” value was “prevented”.

These data come from US11730743B2, “Protection of cells from degeneration and treatment of geographic atrophy” (University of Kentucky Research Foundation, priority 2012, dated 2023).
